Results on 28 molecules are retold here after patent US20260224589A1 (priority 2023, published 2026).

The test system of one test is AsPC-1 cells. The experiment in a line: phospho-ERK HTRF assay in AsPC-1 cells, 4 h treatment. It counts as cell-based. The note with it: Homo sapiens, ASPC1; AsPC-1, 4H; Table 1a class column; read-out: pERK IC50 activity range (*).
Consider `CON(C)C(=O)c1nn2c(c1C)CN(c1nc(OC[C@@]34CCCN3C/C(=C\F)C4)nc3c1COC(c1cc(N)cc(Cl)c1C(F)(F)F)C3)CCC2` (stereo partly drawn) [compound 450, 5-(7-(5-amino-3-chloro-2-(trifluoromethyl)phenyl)-2-(((S,Z)-2-(fluoromethylene)tetrahydro-1H-pyrrolizin-7a(5H)-yl)methoxy)-7,8-dihydro-5H-pyrano[4,3-d]pyrimidin-4-yl)-N-methoxy-N,3-dimethyl-5,6,7,8-tetrahydro-4H-pyrazolo[1,5-a][1,4]diazepine-2-carboxamide], for which the IC50 lay in the range of 10 to 30 nM.
Consider `CON(C)C(=O)c1nn2c(c1Cl)CN(c1nc(OC[C@]34CCCN3C[C@@H](C=C(F)F)C4)nc3c1COC(c1cc(N)cc(Cl)c1C(F)(F)F)C3)CCC2` (some centres unmarked) [compound 451], for which the half-inhibitory concentration (IC50) lay in the range of 10 to 30 nM.
Consider `CON(C)C(=O)c1nn2c(c1Cl)CN(c1nc(OC[C@@]34CCCN3C[C@H](F)C4)nc3c1COC(c1cc(N)cc(Cl)c1C(F)(F)F)C3)CCC2` (some centres unmarked) [compound 452], for which the IC50 lay within 10 to 30 nM.
The same measure, in the same setting: the figure for `CON(C)C(=O)c1nn2c(c1Cl)CN(c1nc(OC[C@@]34CCCN3CC(=C(F)F)C4)nc3c1COC(c1c(F)c(N)cc(Cl)c1C(F)(F)F)C3)CCC2` (some centres unmarked) [compound 454] is 10 to 30 nM; for `CON(C)C(=O)c1nn2c(c1Cl)CN(c1nc(OC[C@@]34CCCN3C/C(=C\F)C4)nc3c1COC(c1c(F)c(N)cc(Cl)c1C(F)(F)F)C3)CCC2` (some centres unmarked) [compound 463] it is 10 to 30 nM.
Take `CON(C)C(=O)c1nn2c(c1Cl)CN(c1nc(OC[C@@]34CCCN3C[C@H](F)C4)nc3c1COC(c1c(F)c(N)cc(C)c1C(F)(F)F)C3)CCC2` (stereo partly drawn) [compound 464, 5-(2-{[(2R,7aS)-2-fluoro-hexahydropyrrolizin-7a-yl]methoxy}-7-[3-amino-2-fluoro-5-methyl-6-(trifluoromethyl)phenyl]-5H,7H,8H-pyrano[4,3-d]pyrimidin-4-yl)-3-chloro-N-methoxy-N-methyl-4H,6H,7H,8H-pyrazolo[1,5-a][1,4]diazepine-2-carboxamide]: the IC50 was 10 to 30 nM.

Still in this test, the particulars now being: Homo sapiens, ASPC1; AsPC-1, 4h; Table 1b; read-out: PERK IC50 (AsPC-1, 4h).
As for `CCN(C)C(=O)c1nn2c(c1Cl)CN(c1nc(OC[C@@]34CCCN3C/C(=C\F)C4)nc3c1CO[C@H](c1c(F)c(N)cc(Cl)c1C(F)(F)F)C3)CCC2` [compound 432], the concentration for half-maximal inhibition (IC50) was below 10 nM.
With `CCN(C)C(=O)c1nn2c(c1Cl)CN(c1nc(OC[C@@]34CCCN3C[C@H](F)C4)nc3c1CO[C@H](c1c(F)c(N)cc(Cl)c1C(F)(F)F)C3)CCC2` [compound 433], the concentration for half-maximal inhibition (IC50) was below 10 nM.
The same measure, in the same setting: in the case of `CCN(CC)C(=O)c1nn2c(c1Cl)CN(c1nc(OC[C@@]34CCCN3C/C(=C\F)C4)nc3c1CO[C@H](c1c(F)c(N)cc(Cl)c1C(F)(F)F)C3)CCC2` [compound 434] it was below 10 nM; in that of `CC#Cc1cc(N)c(F)c([C@@H]2Cc3nc(OC[C@@]45CCCN4C[C@H](F)C5)nc(N4CCCn5nc(C(=O)N(C)C)c(Cl)c5C4)c3CO2)c1C(F)(F)F` [compound 435], below 10 nM.
Still for that read-out and setting: in the case of `CN(C)C(=O)c1nn2c(c1Cl)CN(c1nc(OC[C@@]34CCCN3C/C(=C\F)C4)nc3c1CO[C@H](c1c(F)c(N)cc(Cl)c1Cl)C3)CCC2` [compound 436] it was below 10 nM; in that of `CC#Cc1cc(N)c(F)c([C@@H]2Cc3nc(OC[C@@]45CCCN4C/C(=C\F)C5)nc(N4CCCn5nc(C(=O)N(C)C)c(Cl)c5C4)c3CO2)c1C(F)(F)F` [compound 437], below 10 nM.
As for `CN(C)C(=O)c1nn2c(c1Cl)CN(c1nc(OC[C@@]34CCCN3C/C(=C\F)C4)nc3c1COC(c1cc(N)cc(Cl)c1C1CC1)C3)CCC2` (some centres unmarked) [compound 438], the IC50 was below 10 nM.
`CN(C)C(=O)c1nn2c(c1Cl)CN(c1nc(OC[C@@]34CCCN3C/C(=C\F)C4)nc3c1CO[C@H](c1cc(N)cc(Cl)c1C1CC1)C3)CCC2` [compound 439]: the IC50 was below 10 nM.
On to `Cc1c(C(=O)N(C)C)nn2c1CN(c1nc(OC[C@@]34CCCN3C/C(=C\F)C4)nc3c1CO[C@H](c1c(F)c(N)cc(Cl)c1C(F)(F)F)C3)CCC2` [compound 440], for which the IC50 was below 10 nM.
`Cc1c(C(=O)N(C)C)nn2c1CN(c1nc(OC[C@@]34CCCN3C[C@H](F)C4)nc3c1CO[C@H](c1c(F)c(N)cc(Cl)c1C(F)(F)F)C3)CCC2` [compound 441]: the IC50 was below 10 nM.
Turning to `Cc1c(C(=O)N(C)C)nn2c1CN(c1nc(OC[C@@]34CCCN3C/C(=C\F)C4)nc3c1CO[C@H](c1c(F)c(N)cc(Cl)c1Cl)C3)CCC2` [compound 442], the half-maximal inhibitory concentration (IC50) was below 10 nM.
As for `CC#Cc1cc(N)c(F)c([C@@H]2Cc3nc(OC[C@@]45CCCN4C[C@H](F)C5)nc(N4CCCn5nc(C(=O)N(C)C)c(C)c5C4)c3CO2)c1C(F)(F)F` [compound 444], the half-maximal inhibitory concentration (IC50) is below 10 nM.
`Cc1c(C(=O)N(C)C)nn2c1CN(c1nc(OC[C@]34CCCN3C[C@@H](C=C(F)F)C4)nc3c1CO[C@H](c1cc(N)cc(Cl)c1C(F)(F)F)C3)CCC2` [compound 447]: the IC50 is below 10 nM.
As for `CON(C)C(=O)c1nn2c(c1Cl)CN(c1nc(OC[C@@]34CCCN3C[C@H](F)C4)nc3c1CO[C@H](c1cc(N)cc(Cl)c1C(F)(F)F)C3)CCC2` [compound 448], the half-maximal inhibitory concentration (IC50) is below 10 nM.
Turning to `CON(C)C(=O)c1nn2c(c1Cl)CN(c1nc(OC[C@@]34CCCN3C/C(=C\F)C4)nc3c1COC(c1cc(N)cc(Cl)c1C(F)(F)F)C3)CCC2` (some centres unmarked) [compound 449], the IC50 is below 10 nM.
Regarding `CN(C)C(=O)c1nn2c(c1Cl)CN(c1nc(OC[C@]34CCCN3C[C@@H](C=C(F)F)C4)nc3c1CO[C@H](c1cc(N)cc(Cl)c1C(F)(F)F)C3)CCC2` [compound 456], the concentration for half-maximal inhibition (IC50) is below 10 nM.
`C[C@@]1(O)COCCN(c2nc(OC[C@]34CCCN3C[C@@H](C=C(F)F)C4)nc3c2CO[C@H](c2cc(N)cc(Cl)c2C(F)(F)F)C3)C1` [compound 457]: the 50% inhibitory concentration (IC50) is below 10 nM.
On to `Cc1c(C(=O)N(C)C)nn2c1CN(c1nc(OC[C@]34CCCN3C[C@@H](C=C(F)F)C4)nc3c1CO[C@H](c1c(F)c(N)cc(Cl)c1C(F)(F)F)C3)CCC2` [compound 458], for which the IC50 is below 10 nM.
For the molecule `CN(C)C(=O)c1nn2c(c1Cl)CN(c1nc(OC[C@]34CCCN3C[C@@H](C=C(F)F)C4)nc3c1CO[C@H](c1c(F)c(N)cc(Cl)c1C(F)(F)F)C3)CCC2` [compound 459], the IC50 is below 10 nM.
Turning to `CN(C)C(=O)c1nn2c(c1Cl)CN(c1nc(OC[C@]34CCCN3C[C@@H](C=C(F)F)C4)nc3c1COC(c1c(F)c(N)cc(Cl)c1C(F)(F)F)C3)CCC2` (some centres unmarked) [compound 460], the IC50 is below 10 nM.
Turning to `CON(C)C(=O)c1nn2c(c1Cl)CN(c1nc(OC[C@@]34CCCN3C/C(=C\F)C4)nc3c1CO[C@H](c1c(F)c(N)cc(Cl)c1C(F)(F)F)C3)CCC2` [compound 461], the IC50 was below 10 nM.

Staying with this test, now noted: Homo sapiens, ASPC1; Table 3; read-out: pERK Inhibition AsPC-1 IC50.
`CN(C)C(=O)c1nn2c(c1Cl)CN(c1nc(OC[C@@]34CCCN3C[C@H](F)C4)nc3c1CO[C@H](c1c(C(F)(F)F)ccc(N)c1F)C3)CCC2` (single isomer, unassigned) [Example 1]: the 50% inhibitory concentration (IC50) was 12.8 nM.

In a further test the test system is SW-620. As to the kind of experiment: phospho-ERK HTRF assay in SW-620 cells, 4 h treatment. The test is classed as cell-based. The settings on record: Homo sapiens, Table 3, read-out: pERK Inhibition SW-620 IC50.
With `CN(C)C(=O)c1nn2c(c1Cl)CN(c1nc(OC[C@@]34CCCN3C[C@H](F)C4)nc3c1CO[C@H](c1c(C(F)(F)F)ccc(N)c1F)C3)CCC2` (single isomer, unassigned) [Example 1], the IC50 was 14.4 nM.
